Data from ChEMBL document CHEMBL1144651, “Concise synthesis of dideoxy-epigallocatechin gallate (DO-EGCG) and evaluation of its anti-influenza virus activity” (Bioorg Med Chem Lett, 2007).

Tested on: Influenza A virus
Assay: Antiviral activity against Influenza A virus (A/Memphis/1/71(H3N2)) in MDCK cells after 16 hrs by focus forming assay
Type: functional, organism-based, Influenza A virus (A/Memphis/1/1971(H3N2))

Question: How did the IC50 turn out when `O=C(O[C@@H]1Cc2ccccc2O[C@@H]1c1cc(O)c(O)c(O)c1)c1cc(O)c(O)c(O)c1` was run?
Answer: 11.9 µM

Question: With `O=C(O[C@@H]1Cc2c(O)cc(O)cc2O[C@@H]1c1cc(O)c(O)c(O)c1)c1cc(O)c(O)c(O)c1` [EPIGALOCATECHIN GALLATE] as the molecule, how does the IC50 read?
Answer: 41.2 µM
